Laboratory results reported in US20250282799A1, “SUBSTITUTED PYRIDO[4,3-d]PYRIMIDINES AS KRAS MODULATORS” (Alterome Therapeutics, Inc., priority 2023, published 2025).

How the values were obtained:
[1] = target: KRAS (G12V)/CRAF (Homo sapiens (Human), UniProt P01116, G12V); experiment: TR-FRET biochemical KRAS:CRAF protein:protein interaction assay, KRAS (G12V); format: binding; settings: GMPPNP loaded Biotin-KRAS (G12V), FLAG CRAF RBD; read-out: TR-Fret_PPI KRAS (G12V)/CRAF IC50
Method: (§1) The effect of test compounds on KRAS and CRAF protein: protein interaction (PPI) was measured by time resolved fluorescence resonance energy transfer (TR-FRET) Ras binding domain (RBD) assay, which uses a signal generated through fluorescent resonance energy transfer between a donor and an acceptor molecule when in close proximity to each other. Interference from buffer, media, etc. is reduced by dual-wavelength detection; the energy pulse from the excitation source is followed by a time delay, which allows interfering short-lived fluorescence to decay (Degorce et al. 2009).
(§2) The KRAS: CRAF PPI assay can be utilized to identify KRAS ‘ON’ state inhibitors, as the KRAS protein is loaded with GMPPNP (a non-hydrolyzable GTP analog), which represents the active KRAS ‘ON’ state. FLAG-tagged CRAF RBD binding to the GMPPNP loaded biotin-tagged KRAS will result in a fluorescence energy transfer from the donor (Tb-anti-FLAG, emission 620 nm) to the acceptor (SA-XL665, emission 665 nm). Disruption of KRAS and CRAF binding will reduce the TR-FRET signal.
(§3) Test compound was dissolved in DMSO to create a 1 mM stock solution. A 45 μL volume of stock solution was transferred to a 384well polypropylene plate. A 3fold, 10point dilution was performed by transferring 15 μL of test compound solution into 30 μL of DMSO.
(§4) Assay buffer A was prepared with […] Hepes, pH7.3, 0.002% Tween 20, 0.1% BSA, […] NaCl, 5 mM MgCl2, and 10 uM GMP-PNP. 4× KRAS Solution was prepared with 80 nM of Biotin-KRAS (G12D/V), GMPPNP loaded or Biotin-KRAS (WT), GMPPNP loaded protein in assay buffer A. 4× Raf RBD Solution was prepared with 400 nM FLAG CRAF RBD in assay buffer A. 2× Detection Mixture was prepared with 2 nM Tb-anti-FLAG antibody and 10 nM and 10 nM SA-XL665 in assay buffer A.
(§5) A volume of 100 nL of 100× test compound working solution or DMSO vehicle control solution was dispensed to each well (duplicate for each concentration) of a 384-well ProxiPlate Plus assay plate. A volume of 2.5 μL of 4× KRAS Solution was added to each well of the assay plate for a final concentration of 20 nM Biotin-KRAS (G12D/V),GMPPNP loaded or 20 nM Biotin-KRAS (WT), GMPPNP. For low control, add 2.5 μL of assay buffer (no KRAS protein). Pre-incubate assay plate for 30 minutes at room temperature. Following pre-incubation of test compound or DMSO with Biotin-KRAS (G12D/V),GMPPNP loaded or Biotin-KRAS (WT),GMPPNP, a volume of 2.5 μL of 4× FLAG cRAF RBD Solution was added to each well of the assay plate for a final concentration of 100 nM FLAG CRAF RBD. The assay plate was subjected to centrifuge at 1000 rpm for 1 minute and pre-incubate assay plate for 150 minutes at room temperature. Following the pre-incubation with FLAG cRAF RBD, a volume of 5 μl of 2× Detection Mixture was added to each well of the assay plate for a final concentration of 1 nM Tb-anti-FLAG and 5 nM SA-XL665. The assay plate was centrifuged at 1000 rpm for 1 minute and incubated for 90 minutes at room temperature. TR-FRET signal was measured on a BioTek Synergy Neo2 microplate reader (excitation at 340 nm, emission at 665 nn and 620 nm).
(§6) TR-FRET ratios were calculated by dividing the acceptor emission value (665 nm) by the donor emission value (620 nm) for each sample.
(§7) Percent inhibition was calculated by multiplying the normalized TR-FRET ratio by 100, where TR-FRET ratio^HIGH was the TR-FRET ratio obtained from wells with 1% DMSO and complete reaction mixture, TR-FRET ratio^LOW was the ratio obtained from wells with 1% DMSO and reaction mixture without KRAS protein and TR-FRET ratio^SAMPLE was the TR-FRET ratio from wells with test compound and complete reaction mixture. The IC50 values were calculated from normalized TR-FRET ratios with the Levenberg-Marquardt 4 parameter fitting procedure.
(§8) This assay quantifies the interaction of a KRAS mutant protein (e.g., G12V) with the CRAF Ras-binding domain (RBD). […]

[2] = target: KRAS (G12D)/CRAF (Homo sapiens (Human), UniProt P01116, G12D); experiment: TR-FRET biochemical KRAS:CRAF protein:protein interaction assay, KRAS (G12D); format: binding; settings: GMPPNP loaded Biotin-KRAS (G12D), FLAG CRAF RBD; read-out: TR-Fret_PPI KRAS (G12D)/CRAF IC50
KRAS (G12D)/CRAF, sequence (P01116-2 other isoform, or with tags, fused parts or gaps G12D): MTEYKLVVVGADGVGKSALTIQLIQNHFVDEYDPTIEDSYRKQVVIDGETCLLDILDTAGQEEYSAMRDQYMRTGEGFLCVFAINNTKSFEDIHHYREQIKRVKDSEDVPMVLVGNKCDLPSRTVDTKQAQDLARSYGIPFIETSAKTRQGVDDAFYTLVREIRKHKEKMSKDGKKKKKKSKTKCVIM
Method: as §1, §2, §3, §4, §5, §6, §7, §8

[3] = test system: KRAS G12V dependent lung adenocarcinoma cell line, NCI-H441; experiment: Cellular pERK (Thr202/Tyr204) FRET/HTRF assay; format: cell-based; settings: Homo sapiens
In short: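 NCI-H441 cells (KRAS G12V) were seeded and grown overnight at 37 °C, 5% CO2, then treated with compound in DMSO for 1 hr. Lysates were probed with a Eu3+-cryptate/d2 antibody sandwich against pERK1/2 Thr202/Tyr204 and read by HTRF at 665 nm; IC50 from curve fitting.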

[4] = NCI-H441, cellular pERK (Thr202/Tyr204) HTRF, NCI-H441 cells

KRAS (G12V)/CRAF, sequence (P01116-2 other isoform, or with tags, fused parts or gaps G12V): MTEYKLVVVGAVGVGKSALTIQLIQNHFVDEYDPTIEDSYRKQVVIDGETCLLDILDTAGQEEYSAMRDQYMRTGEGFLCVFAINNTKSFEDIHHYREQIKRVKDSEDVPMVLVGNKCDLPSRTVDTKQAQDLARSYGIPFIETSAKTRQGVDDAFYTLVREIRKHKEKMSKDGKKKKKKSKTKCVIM

[2H]C([2H])(Oc1nc(N2CCCC[C@@H]3[C@H](Cl)[C@@H]32)c2cnc(-c3cc(N)cc4ccc(F)c(C#C)c34)c(F)c2n1)[C@@]12CCCN1C[C@H](F)C2 [Example 343, 4-(4-((1R,7S,8S)-8-chloro-2-azabicyclo[5.1.0]octan-2-yl)-8-fluoro-2-(((2R,7aS)-2-fluorotetrahydro-1H-pyrrolizin-7a(5H)-yl)methoxy-d2)pyrido[4,3-d]pyrimidin-7-yl)-5-ethynyl-6-fluoronaphthalen-2-amine]
IC50 [1]: ≥ 10000 nM | IC50 [2]: 3000 nM | IC50 [3, 4]: 500 to 10000 nM

[2H]C([2H])(Oc1nc(N2CCOC[C@@H]3[C@H](F)[C@@H]32)c2cnc(-c3cc(N)cc4ccc(F)c(C#C)c34)c(F)c2n1)[C@@]12CCCN1C[C@H](F)C2 [Example 224, 5-ethynyl-6-fluoro-4-(8-fluoro-4-((1R,7R,8S)-8-fluoro-5-oxa-2-azabicyclo[5.1.0]octan-2-yl)-2-(((2R,7aS)-2-fluorotetrahydro-1H-pyrrolizin-7a(5H)-yl)methoxy-d2)pyrido[4,3-d]pyrimidin-7-yl)naphthalen-2-amine]
IC50 [1]: > 3000 nM | IC50 [2]: > 3000 nM | IC50 [3, 4]: 500 to 10000 nM

[2H]C([2H])(Oc1nc(N2CCCO[C@H]3[C@H](Cl)[C@H]32)c2cnc(-c3cc(N)cc4ccc(F)c(C#C)c34)c(F)c2n1)[C@@]12CCCN1C[C@H](F)C2 [Example 316, 4-(4-((1R,7S,8R)-8-Chloro-2-oxa-6-azabicyclo[5.1.0]octan-6-yl)-8-fluoro-2-(((2R,7aS)-2-fluorotetrahydro-1H-pyrrolizin-7a(5H)-yl)methoxy-d2)pyrido[4,3-d]pyrimidin-7-yl)-5-ethynyl-6-fluoronaphthalen-2-amine]
IC50 [1]: 51.2 nM | IC50 [2]: 14.1 nM | IC50 [3, 4]: < 50 nM

[2H]C([2H])(Oc1nc(N2CCOC[C@H]3[C@H](Cl)[C@H]32)c2cnc(-c3cc(N)cc4ccc(F)c(C#C)c34)c(F)c2n1)[C@@]12CCCN1C[C@H](F)C2 [Example 248, 4-(4-((1S,7S,8S)-8-Chloro-5-oxa-2-azabicyclo[5.1.0]octan-2-yl)-8-fluoro-2-(((2R,7aS)-2-fluorotetrahydro-1H-pyrrolizin-7a(5H)-yl)methoxy-d2)pyrido[4,3-d]pyrimidin-7-yl)-5-ethynyl-6-fluoronaphthalen-2-amine]
IC50 [1]: 52.6 nM | IC50 [2]: 8.25 nM | IC50 [3, 4]: < 50 nM

[2H]C([2H])(Oc1nc(N2CCCC[C@@H]3[C@@H](Cl)[C@@H]32)c2cnc(-c3cc(N)cc4ccc(F)c(C#C)c34)c(F)c2n1)[C@@]12CCCN1C[C@H](F)C2 [Example 341, 4-(4-((1R,7S,8R)-8-chloro-2-azabicyclo[5.1.0]octan-2-yl)-8-fluoro-2-(((2R,7aS)-2-fluorotetrahydro-1H-pyrrolizin-7a(5H)-yl)methoxy-d2)pyrido[4,3-d]pyrimidin-7-yl)-5-ethynyl-6-fluoronaphthalen-2-amine]
IC50 [1]: ≥ 10000 nM | IC50 [2]: 1790 nM | IC50 [3, 4]: 500 to 10000 nM

[2H]C([2H])(Oc1nc(N2CCOC[C@@H]3[C@@H](Cl)[C@@H]32)c2cnc(-c3cc(N)cc4ccc(F)c(C#C)c34)c(F)c2n1)[C@@]12CCCN1C[C@H](F)C2 [Example 249, 4-(4-((1R,7R,8R)-8-chloro-5-oxa-2-azabicyclo[5.1.0]octan-2-yl)-8-fluoro-2-(((2R,7aS)-2-fluorotetrahydro-1H-pyrrolizin-7a(5H)-yl)methoxy-d2)pyrido[4,3-d]pyrimidin-7-yl)-5-ethynyl-6-fluoronaphthalen-2-amine]
IC50 [1]: 3000 nM | IC50 [2]: 648 nM | IC50 [3, 4]: < 50 nM

[2H]C([2H])(Oc1nc(N2CCCC[C@H]3[C@@H](Cl)[C@H]32)c2cnc(-c3cc(N)cc4ccc(F)c(C#C)c34)c(F)c2n1)[C@@]12CCCN1C[C@H](F)C2 [Example 344, 4-(4-((1S,7R,8R)-8-chloro-2-azabicyclo[5.1.0]octan-2-yl)-8-fluoro-2-(((2R,7aS)-2-fluorotetrahydro-1H-pyrrolizin-7a(5H)-yl)methoxy-d2)pyrido[4,3-d]pyrimidin-7-yl)-5-ethynyl-6-fluoronaphthalen-2-amine]
IC50 [1]: ≥ 10000 nM | IC50 [2]: 1930 nM | IC50 [3, 4]: 500 to 10000 nM

[2H]C([2H])(Oc1nc(N2CCOC[C@H]3[C@@H](F)[C@H]32)c2cnc(-c3cc(N)cc4ccc(F)c(C#C)c34)c(F)c2n1)[C@@]12CCCN1C[C@H](F)C2 [Example 225, 5-ethynyl-6-fluoro-4-(8-fluoro-4-((1S,7S,8R)-8-fluoro-5-oxa-2-azabicyclo[5.1.0]octan-2-yl)-2-(((2R,7aS)-2-fluorotetrahydro-1H-pyrrolizin-7a(5H)-yl)methoxy-d2)pyrido[4,3-d]pyrimidin-7-yl)naphthalen-2-amine]
IC50 [1]: 2910 nM | IC50 [2]: 264 nM | IC50 [3, 4]: < 50 nM

[2H]C([2H])(Oc1nc(N2CC=CC[C@H]3[C@H](F)[C@H]32)c2cnc(-c3cc(N)cc4cc(F)c(F)c(C#C)c34)c(F)c2n1)[C@@]12CCCN1C[C@H](F)C2 [Example 137, 5-Ethynyl-6,7-difluoro-4-(8-fluoro-4-((1S,7R,8S)-8-fluoro-2-azabicyclo[5.1.0]oct-4-en-2-yl)-2-(((2R,7aS)-2-fluorotetrahydro-1H-pyrrolizin-7a(5H)-yl)methoxy-d2)pyrido[4,3-d]pyrimidin-7-yl)naphthalen-2-amine]
IC50 [1]: 155 nM | IC50 [2]: 27.4 nM | IC50 [3, 4]: < 50 nM

[2H]C([2H])(Oc1nc(N2CCCC[C@H]3C[C@H]32)c2cnc(-c3cc(N)cc4cc(F)c(F)c(C#C)c34)c(F)c2n1)[C@@]12CCCN1C[C@H](F)C2 [Example 8, 4-(4-((1R,7S)-2-azabicyclo[5.1.0]octan-2-yl)-8-fluoro-2-(((2R,7aS)-2-fluorotetrahydro-1H-pyrrolizin-7a(5H)-yl)methoxy-d2)pyrido[4,3-d]pyrimidin-7-yl)-5-ethynyl-6,7-difluoronaphthalen-2-amine]
IC50 [1]: 213 nM | IC50 [2]: 27.5 nM | IC50 ([3]; NCI-H441, pERK HTRF, NCI-H441 cells (KRAS G12V)): < 50 nM

[2H]C([2H])(Oc1nc(N2CCOC[C@H]3[C@@H](Cl)[C@H]32)c2cnc(-c3cc(N)cc4ccc(F)c(C#C)c34)c(F)c2n1)[C@@]12CCCN1C[C@H](F)C2 [Example 247, 4-(4-((1S,7S,8R)-8-chloro-5-oxa-2-azabicyclo[5.1.0]octan-2-yl)-8-fluoro-2-(((2R,7aS)-2-fluorotetrahydro-1H-pyrrolizin-7a(5H)-yl)methoxy-d2)pyrido[4,3-d]pyrimidin-7-yl)-5-ethynyl-6-fluoronaphthalen-2-amine]
IC50 [1]: 3000 nM | IC50 [2]: 1390 nM | IC50 [3, 4]: 50 to 500 nM
